According to patent US20160101054A1, “SUSTAINED DELIVERY OF DRUGS FROM BIODEGRADABLE POLYMERIC MICROPARTICLES” (Yale University, priority 2008, published 2016):

Experiments:
EGFR [1] = details: in vivo; cited from earlier work
EGFR [2] = target: T1, EGFR (Rattus norvegicus, UniProt G3V6K6); assay: Bioactivity of AG1478: western blot of phosphorylated EGFR in FR3T3 cells after EGF; type: cell-based; details: for bioactivity by western blot of activated EGFR: FR3T3 cells expressing EGFR at normal levels, concentration equal to IC50, EGF 100 ng/mL
T1 construct: cells expressing EGFR at normal levels; endogenous in cells; host or cells: FR3T3 (Fisher rat 3T3 fibroblasts)
Protocol: Microsphere size was ascertained using a Multisizer™ 3 Coulter Counter® and confirmed visually via SEM. […] Relative bioactivity was determined using the gray mean value for each phospho-EGFR band.

COc1cc2ncnc(Nc3cccc(Cl)c3)c2cc1OC [AG1478]
EGFR upregulation and activation of astrocytes, survival of RGCs (EGFR [1]): reverses this upregulation and activation of astrocytes and increases the survival of RGCs | bioactivity by western blot of activated EGFR (EGFR [2]; listed as non-encapsulated AG1478): 89±4.5% | bioactivity by western blot of activated EGFR (EGFR [2]; listed as non-encapsulated inhibitor): 89±2.7% | inhibition in FR3T3 cells (EGFR [2]; at 3 mM (~[…] polymer)): greater than 95%
